These results are taken from patent US10633348B2, “Methods to treat lymphoplasmacytic lymphoma” (Dana-Farber Cancer Institute, Inc., priority 2013, dated 2020).

One test has as its system Ramos. Briefly: CellTiter-Glo cell viability assay. The test is classed as cell-based. The conditions noted are these: Homo sapiens. The method, then: (§1) CellTiter-Glo® Luminescent cell viability assay (Promega) was used to assess cell survival following treatment with the compounds described. Cells were seeded into 384 well plates with the EL406 Combination Washer Dispenser (BioTek Instruments, Inc.) and the compounds were injected into the cells culture media with the JANUS Automated Workstation (PerkinElmer Inc.). Cells were treated with a series diluted inhibitors (20˜0.04 μM) for 72 hours at 37° C. Luminescent measurement is performed using the 2104 Envision® Multilabel Reader (PerkinElmer Inc.).
(In general: ATP-based viability assays read luminescence as a measure of living cells.)

The next test relates to TMD8. The test can be described thus: CellTiter-Glo cell viability assay. The class given is cell-based. To be noted: Homo sapiens, 72 hours. The method, then: as §1
The test system of a further test is OCI-Ly3. Briefly: CellTiter-Glo cell viability assay. The test is classed as cell-based. The method, then:
as §1

The next test relates to MWCL-1. The test can be described thus: CellTiter-Glo cell viability assay. The test is classed as cell-based. The method, then: as §1
The subject of a further test is OCI-Ly7. Briefly: CellTiter-Glo cell viability assay. To be noted: Homo sapiens, 72 hours. The test is classed as cell-based. The method, then: as §1
For a further test, the system named is BCWM.1. Briefly: CellTiter-Glo cell viability assay. The class given is cell-based. The method, then:
as §1

The next test concerns OCI-Ly19. Briefly: CellTiter-Glo cell viability assay. The test is classed as cell-based. The conditions noted are these: Homo sapiens. The method, then:
as §1

The next test has as its system HCK. The test is classed as biochemical. To be noted: read-out: HCK IC50 (nM) Inv. An excerpt: The in vitro activity of the compounds described herein in inhibiting TAK1, HCK and other kinases were obtained using an Invitrogen Select Screening assay as known in the art. The IC50 values determined from this assay are shown below.

With `Cc1ccc(C(=O)Nc2cccc(C(C)(C)C#N)c2)cc1Oc1ncnc2[nH]ccc12` [(I-11), 3-((7H-pyrrolo[2,3-d]pyrimidin-4-yl)oxy)-N-(3-(2-cyanopropan-2-yl)phenyl)-4-methylbenzamide], the EC50 (commonly the midpoint of the concentration-response curve) in the test with Ramos (72 hours) was 3890 nM; in the test on TMD8 it was 3460 nM; in the test on OCI-Ly3 (Homo sapiens, OCI-Ly3, 72 h), 9690 nM; in the test with MWCL-1 (72 h), 1440 nM; in the test on OCI-Ly7 it was 1120 nM; in the test with BCWM.1 (BCWM1, 72 h), 4950 nM.
In the case of `CCN1CCN(Cc2ccc(NC(=O)c3ccc(C)c(Oc4cc(NC5COC5)ncn4)c3)cc2C(F)(F)F)CC1` [(A-13), N-(4-((4-ethylpiperazin-1-yl)methyl)-3-(trifluoromethyl)phenyl)-4-methyl-3-((6-(oxetan-3-ylamino)pyrimidin-4-yl)oxy)benzamide], the EC50 is 3260 nM with Ramos (72 h); 1730 nM in the test on OCI-Ly3 (72 hours); 1200 nM with OCI-Ly3 (Homo sapiens, OCI-Ly3, 72 h); 1760 nM in the test with MWCL-1 (72 h); 2860 nM in the test with MWCL-1 (72 hours); 2280 nM in the test with OCI-Ly19 (OCI-LY19, 72 h).
On to `CCN1CCN(Cc2ccc(NC(=O)c3ccc(C)c(Oc4cc(Nc5ccn(C)n5)ncn4)c3)cc2C(F)(F)F)CC1` [(A-12), N-(4-((4-ethylpiperazin-1-yl)methyl)-3-(trifluoromethyl)phenyl)-4-methyl-3-((6-((1-methyl-1H-pyrazol-3-yl)amino)pyrimidin-4-yl)oxy)benzamide], for which the EC50 was determined as 2960 nM with Ramos (72 h); 75 nM in the test with MWCL-1 (72 h); 71 nM in the test with MWCL-1 (72 hours); 209 nM with OCI-Ly19 (OCI-LY19, 72 h); 71 nM in the test on BCWM.1 (72 hours); 38 nM in the test with BCWM.1 (BCWM1, 72 h).
In the case of `CCN1CCN(Cc2ccc(NC(=O)c3ccc(C)c(Oc4cc(NC5CNC5)ncn4)c3)cc2C(F)(F)F)CC1` [(A-10), 3-((6-(azetidin-3-ylamino)pyrimidin-4-yl)oxy)-N-(4-((4-ethylpiperazin-1-yl)methyl)-3-(trifluoromethyl)phenyl)-4-methylbenzamide], in the test with HCK, the IC50 (commonly the point on the concentration scale where inhibition reaches its midpoint) is over 10000 nM. Moreover, the EC50 in the test with Ramos (72 hours) is over 20000 nM; in the test on MWCL-1 (72 h) it was 24800 nM; with MWCL-1 (72 hours), over 20000 nM; in the test with OCI-Ly19 (OCI-LY19, 72 hours), over 20000 nM.
With `CCN1CCN(Cc2ccc(NC(=O)c3ccc(C)c(Oc4cc(Nc5cn[nH]c5)ncn4)c3)cc2C(F)(F)F)CC1` [(A-7), 3-((6-((1H-pyrazol-4-yl)amino)pyrimidin-4-yl)oxy)-N-(4-((4-ethylpiperazin-1-yl)methyl)-3-(trifluoromethyl)phenyl)-4-methylbenzamide], the EC50 with Ramos (72 h) worked out at 3020 nM; with OCI-Ly3 (Homo sapiens, OCI-Ly3, 72 h) it was 4000 nM; in the test with MWCL-1 (72 h), 71 nM; with OCI-Ly19 (OCI-LY19, 72 h), 192 nM; with BCWM.1 (BCWM1, 72 h) it was 48 nM.
On to `CCN1CCN(Cc2ccc(NC(=O)c3ccc(C)c(Oc4cc(NN(C)C)ncn4)c3)cc2C(F)(F)F)CC1` [(A-11), 3-((6-(2,2-dimethylhydrazinyl)pyrimidin-4-yl)oxy)-N-(4-((4-ethylpiperazin-1-yl)methyl)-3-(trifluoromethyl)phenyl)-4-methylhenzamide], for which the IC50 with HCK was over 10000 nM. The EC50 in the test on Ramos (72 hours) was over 20000 nM; in the test on OCI-Ly3 (Homo sapiens, OCI-Ly3, 72 h), over 20000 nM; in the test with MWCL-1 (72 h), over 20000 nM; in the test with OCI-Ly19 (OCI-LY19, 72 hours), over 20000 nM; in the test on BCWM.1 (BCWM1, 72 h), 19700 nM.
On to `CCN1CCN(Cc2ccc(NC(=O)c3ccc(C)c(Oc4cc(NC(=O)C5CC5)ncn4)c3)cc2C(F)(F)F)CC1` [(A-3), 3-((6-(cyclopropanecarboxamido)pyrimidin-4-yl)oxy)-N-(4-((4-ethylpiperazin-1-yl)methyl)-3-(trifluoromethyl)phenyl)-4-methylbenzamide], for which the EC50 in the test on Ramos (72 h) was determined as 2680 nM; in the test on OCI-Ly3 (Homo sapiens, OCI-Ly3, 72 h) it was 480 nM; in the test on MWCL-1 (72 h) it was 910 nM; in the test with OCI-Ly19 (OCI-LY19, 72 h), 600 nM; in the test with BCWM.1 (BCWM1, 72 h), 50 nM.
Consider `CCN1CCN(Cc2ccc(NC(=O)c3ccc(C)c(Oc4ccnc(Nc5cnoc5)n4)c3)cc2C(F)(F)F)CC1` [(A-15), N-(4-((4-ethylpiperazin-1-yl)methyl)-3-(trifluoromethyl)phenyl)-3-((2-(isoxazol-4-ylamino)pyrimidin-4-yl)oxy)-4-methylbenzamide], for which the EC50 came to 4680 nM in the test with Ramos (72 h); 392 nM in the test with TMD8; 718 nM in the test with MWCL-1 (72 h); 307 nM in the test with OCI-Ly19 (OCI-LY19, 72 h); 786 nM with OCI-Ly7; 185 nM in the test with BCWM.1 (BCWM1, 72 h).
Consider `CCN1CCN(Cc2ccc(NC(=O)c3ccc(C)c(Oc4cc(Nc5cnoc5)ncn4)c3)cc2C(F)(F)F)CC1` [(A-16), N-(4-((4-ethylpiperazin-1-yl)methyl)-3-(trifluoromethyl)phenyl)-3-((6-(isoxazol-4-ylamino)pyrimidin-4-yl)oxy)-4-methylbenzamide], for which the EC50 in the test on Ramos (72 hours) stood at 1310 nM; in the test on TMD8 it was 856 nM; in the test with MWCL-1 (72 h), 1710 nM; in the test on OCI-Ly19 (OCI-LY19, 72 hours), 777 nM; in the test on OCI-Ly7, 1030 nM; with BCWM.1 (BCWM1, 72 h) it was 610 nM.
Regarding `CCN1CCN(Cc2ccc(NC(=O)c3ccc(C)c(Oc4cc(NNC(C)=O)ncn4)c3)cc2C(F)(F)F)CC1` [(A-9), 3-((6-(2-acetylhydrazinyl)pyrimidin-4-yl)oxy)-N-(4-((4-ethylpiperazin-1-yl)methyl)-3-(trifluoromethyl)phenyl)-4-methylbenzamide], the IC50 with HCK is over 10000 nM. Also, the EC50 in the test on Ramos (72 hours) is over 20000 nM; with OCI-Ly3 (72 hours) it was over 20000 nM; with OCI-Ly3 (Homo sapiens, OCI-Ly3, 72 h), 19600 nM; in the test on MWCL-1 (72 h), 18700 nM; with MWCL-1 (72 hours), over 20000 nM; in the test with OCI-Ly19 (OCI-LY19, 72 hours), over 20000 nM. The EC50 in the test with BCWM.1 (72 hours) was 6460 nM; with BCWM.1 (BCWM1, 72 h), 10800 nM.
As to `C=CC(=O)NNc1cc(Oc2cc(C(=O)Nc3ccc(CN4CCN(CC)CC4)c(C(F)(F)F)c3)ccc2C)ncn1` [(A-18)], the EC50 was determined as 7240 nM with Ramos (72 h); 4090 nM in the test on MWCL-1 (72 h); 6740 nM with MWCL-1 (72 hours); 2780 nM in the test with OCI-Ly19 (OCI-LY19, 72 h); 3750 nM with BCWM.1 (72 hours); 1980 nM in the test with BCWM.1 (BCWM1, 72 h).
As to `CCN1CCN(Cc2ccc(NC(=O)c3ccc(C)c(Oc4cc(Nc5ccn[nH]5)ncn4)c3)cc2C(F)(F)F)CC1` [(A-6), 3-((6-((1H-pyrazol-5-yl)amino)pyrimidin-4-yl)oxy)-N-(4-((4-ethylpiperazin-1-yl)methyl)-3-(trifluoromethyl)phenyl)-4-methylbenzamide], the EC50 in the test with Ramos (72 h) was determined as 3080 nM; with OCI-Ly3 (Homo sapiens, OCI-Ly3, 72 h), 4770 nM; with MWCL-1 (72 h), 118 nM; in the test with OCI-Ly19 (OCI-LY19, 72 h) it was 302 nM; with BCWM.1 (BCWM1, 72 h), 86 nM.
In the case of `CCN1CCN(Cc2ccc(NC(=O)c3ccc(C)c(Oc4cc(NC)ncn4)c3)cc2C(F)(F)F)CC1` [(A-1), N-(4-((4-ethylpiperazin-1-yl)methyl)-3-(trifluoromethyl)phenyl)-4-methyl-3-((6-(methylamino)pyrimidin-4-yl)oxy)benzamide], the IC50 with HCK worked out at 275 nM. The EC50 with Ramos (72 hours) was found to be 9480 nM; with OCI-Ly3 (Homo sapiens, OCI-Ly3, 72 h), 11500 nM; in the test with MWCL-1 (72 h), 3990 nM; in the test on OCI-Ly19 (OCI-LY19, 72 hours) it was 4980 nM; in the test on BCWM.1 (BCWM1, 72 h), 1720 nM.
For `CCC(=O)Nc1cc(Oc2cc(C(=O)Nc3ccc(CN4CCN(CC)CC4)c(C(F)(F)F)c3)ccc2C)ncn1` [(A-2), N-(4-((4-ethylpiperazin-1-yl)methyl)-3-(trifluoromethyl)phenyl)-4-methyl-3-((6-propionamidopyrimidin-4-yl)oxy)benzamide], the EC50 in the test with Ramos (72 h) came out at 5340 nM; in the test on OCI-Ly3 (Homo sapiens, OCI-Ly3, 72 h), 2960 nM; with MWCL-1 (72 h), 1350 nM; with OCI-Ly19 (OCI-LY19, 72 h) it was 1750 nM; with BCWM.1 (BCWM1, 72 h) it was 42 nM.
